Measured values reported in patent publication US20020182587A1, “Methods and compositions for the treatment and prevention of smooth muscle cell proliferation” (priority 2001, published 2002).

Assays:
[1] = system: neointima formation following balloon catheter-induced injury of the common carotid arteries; assay: Neointima formation after balloon catheter-induced injury of the common carotid arteries; type: in vivo, male Wistar rats
Method: Two of test compounds discovered using the methods of the present invention, particularly shown in Example VI, compositions RUS 3052 and RUS 3108, were evaluated for efficacy in the reduction of neointima formation following balloon catheter-induced injury of the common carotid arteries of male Wistar rats. Thirty-two rats were divided into groups of eight animals per group: two test compound groups and two control groups. The two control groups were the positive control, 5 mg/kg probucol, and the negative control, the vehicle for the test compositions and the positive control probucol. […] The vehicle solution was 10% DMSO, 10% cremophor, 20% propylene glycol in water for injection. Test compositions RUS 3052 and RUS 3108 were initially administered at 5 mg/kg up to and including the day of surgery. Starting the day after surgery, until the end of the study, the dosage of all compositions was lowered to 1 mg/kg. The test compositions were prepared by combining 5 mg of the test compound or control with 100 μl DMSO, 100 μl cremophor EL, and 200 μl propylene glycol with intermittent mixing using a cyclomixer. Water for injection was added in 100 μl aliquots to give a final volume of 1 ml.
The test compositions and controls were administered daily by intraperitoneal injection starting 72 hours prior to the surgical procedure and continued until necropsy, 14 days after the procedure. One animal from each of the four groups underwent the surgical procedure each day using a #2F Fogarty embolectomy catheter. An embolectomy catheter was introduced into the right external carotid artery and retrogradely passed to the aortic arch through the common carotid artery. The balloon was inflated with sterile saline and then pulled to the common carotid-external carotid bifurcation. […]
Fourteen days post-surgery, the animals of Example VII were euthanized and the damaged right carotid arteries were collected, sectioned and stained with modified elastin-trichrome, and then analyzed for neointima formation that was quantified by histomorphometric analysis. […]

human aortic SMC = assay: (3H)thymidine DNA synthesis / proliferation of sub-confluent SMC; type: cell-based; settings: purified perlecan added to 10% serum-containing medium, 24 h
Method: Smooth muscle cells reach quiescence during serum starvation resulting in a blockade of DNA synthesis. […] The cells used in this Example and the other examples herein were human aortic SMC, grown in basal medium supplemented with growth factors, bFGF and epidermal growth factor (EGF) (Clonetics, San Diego, Calif.).
The addition of perlecan to serum-containing medium inhibited SMC growth by 70% (FIG. 2). Sub-confluent SMC (40-50% confluence) were incubated in serum-free medium or 10% serum-containing medium with or without purified perlecan for 24 h. DNA synthesis was then determined by incubating cells for another 5 h in medium containing (^3H)thymidine. TCA precipitable (DNA) thymidine counts were determined and expressed as percentage of DNA synthesis in cells grown in 10%FBS.
Perlecan, induced in serum-free conditions, was required for the blockade of DNA synthesis observed in serum-free conditions. The anti-perlecan antibody of Example I was used to block perlecan. Sub-confluent levels of SMC (40-50% confluence) were incubated in serum-free medium containing 0, 5, 10 and 20 μg of mouse IgG or anti-perlecan IgG for 24 hours. DNA synthesis was then determined by incubating cells for another 5 hours in medium containing (^3H)thymidine. TCA precipitable (DNA) (^3H)thymidine counts were determined and expressed as percentage of DNA synthesis in cells grown in 10% FBS. […]

Compound | IA/MA Average ± STD (n), Based on Section Averages ([1]; rat, i.p. daily, 5 mg/kg up to surgery then 1 mg/kg, 14 days post-surgery, all sections within group) | IA/MA Average ± STD (n), Based on Animal Averages ([1]; rat, i.p. daily, 5 mg/kg up to surgery then 1 mg/kg, 14 days post-surgery, sections with IA/MA > 0.0915) | reduction of neointima formation in comparison to the negative control group ([1]; significance set at p<0.20) | inhibition of SMC growth (DNA synthesis, percentage of cells grown in 10% FBS) (human aortic SMC)
CC(C)(Sc1cc(C(C)(C)C)c(O)c(C(C)(C)C)c1)Sc1cc(C(C)(C)C)c(O)c(C(C)(C)C)c1 [Probucol, probucol] | 0.71 ± 0.30 (9) | 0.65 ± 0.25 (3) | effective in significantly reducing neointima formation | –
perlecan | – | – | – | 70%
